Measurements published in PubChem BioAssay AID270 (DTP/NCI, 2004).
Several values for one entry are separate records, joined by “and”; a condition that tells them apart may be missing. Equal entries are not always repeated. Results filed as inconclusive are left out.

Tested on: BDF1 mice, s.c. Lewis lung carcinoma, T/C %
Experiment: NCI In Vivo Anticancer Drug Screen. Data for tumor model Lewis Lung Carcinoma (subcutaneous) in B6D2F1 (BDF1) mice
Protocol: The antitumor activity of compounds was measured in mice bearing transplantable tumors. Survival or tumor size were measured and the results are expressed as the measurement made in the treated group (T) divided by the measurement made in the vehicle treated control group (C). The tumor model used in this assay is Lewis Lung Carcinoma (subcutaneous) in B6D2F1 (BDF1) mice

[1] = endpoint: mean tumor weight, dose: 100.0 mg/kg/injection, schedule: Q01DX011 (ip), vehicle: saline, higher = larger tumour

O=NN(CCF)C(=O)NC1CSCSC1
T/C (endpoint: median tumor weight (est.), dose: 14.0 mg/kg/injection, schedule: Q01DX001 (ip), vehicle: saline with Tween-80, higher = larger tumour): 61 % of control | T/C (endpoint: median tumor weight (est.), dose: 27.0 mg/kg/injection, schedule: Q01DX001 (ip), vehicle: saline with Tween-80, higher = larger tumour): 45 % of control | T/C (endpoint: median tumor weight (est.), dose: 41.0 mg/kg/injection, schedule: Q01DX001 (ip), vehicle: saline with Tween-80, higher = larger tumour): 8 % of control

Oc1cc(O)c2c(c1)O[C@H](c1ccc(O)c(O)c1)[C@@H](O)C2
T/C (endpoint: mean tumor weight, dose: 50.0 mg/kg/injection, schedule: Q01DX011 (ip), vehicle: saline, higher = larger tumour): 76 % of control | T/C [1]: 94 % of control | T/C (endpoint: mean tumor weight, dose: 200.0 mg/kg/injection, schedule: Q01DX011 (ip), vehicle: saline, higher = larger tumour): 72 % of control | T/C (endpoint: mean tumor weight, dose: 400.0 mg/kg/injection, schedule: Q01DX011 (ip), vehicle: saline, higher = larger tumour): 74 % of control

Cc1cc2oc(=O)c3c(c2c(O)c1CN1CCCC1)CCCC3
T/C (endpoint: median survival time, dose: 29.0 mg/kg/injection, schedule: Q01DX009 (ip), vehicle: Klucel (hydroxypropylcellulose) (HPC), higher = longer survival): 94 % of control | T/C (endpoint: median survival time, dose: 58.0 mg/kg/injection, schedule: Q01DX009 (ip), vehicle: Klucel (hydroxypropylcellulose) (HPC), higher = longer survival): 106 % of control | T/C (endpoint: median survival time, dose: 116.0 mg/kg/injection, schedule: Q01DX009 (ip), vehicle: Klucel (hydroxypropylcellulose) (HPC), higher = longer survival): 106 % of control | T/C (endpoint: median survival time, dose: 232.0 mg/kg/injection, schedule: Q01DX009 (ip), vehicle: Klucel (hydroxypropylcellulose) (HPC), higher = longer survival): 94 % of control

Oc1ccc(Nc2ccnc3cc(Cl)ccc23)cc1CN(CCCl)CCCl
T/C (endpoint: median survival time, dose: 2.5 mg/kg/injection, schedule: Q01DX009 (ip), vehicle: saline, higher = longer survival): 108 % of control

CCOCCCN
T/C (endpoint: mean tumor weight, dose: 44.0 mg/kg/injection, schedule: Q01DX011 (ip), vehicle: saline, higher = larger tumour): 106 % of control | T/C (endpoint: mean tumor weight, dose: 66.0 mg/kg/injection, schedule: Q01DX011 (ip), vehicle: saline, higher = larger tumour): 97 % of control | T/C [1]: 123 % of control | T/C (endpoint: mean tumor weight, dose: 148.0 mg/kg/injection, schedule: Q01DX011 (ip), vehicle: saline, higher = larger tumour): 101 % of control

Cc1ccc(NC(=O)N(CCBr)N=O)cc1
T/C (endpoint: median survival time, dose: 0.5 mg/kg/injection, schedule: Q01DX009 (ip), vehicle: other, higher = longer survival): 101 % of control | T/C (endpoint: median survival time, dose: 1.0 mg/kg/injection, schedule: Q01DX009 (ip), vehicle: other, higher = longer survival): 103 % of control | T/C (endpoint: median survival time, dose: 1.6 mg/kg/injection, schedule: Q01DX009 (ip), vehicle: other, higher = longer survival): 97 % of control | T/C (endpoint: median survival time, dose: 2.0 mg/kg/injection, schedule: Q01DX009 (ip), vehicle: other, higher = longer survival): 106 % of control | T/C (endpoint: median survival time, dose: 4.0 mg/kg/injection, schedule: Q01DX009 (ip), vehicle: other, higher = longer survival): 97 % of control | T/C (endpoint: median survival time, dose: 6.25 mg/kg/injection, schedule: Q01DX009 (ip), vehicle: other, higher = longer survival): 94 % of control and 99 % of control | T/C (endpoint: median survival time, dose: 12.5 mg/kg/injection, schedule: Q01DX009 (ip), vehicle: other, higher = longer survival): 95 % of control | T/C (endpoint: median survival time, dose: 25.0 mg/kg/injection, schedule: Q01DX009 (ip), vehicle: other, higher = longer survival): 96 % of control | T/C (endpoint: median survival time, dose: 50.0 mg/kg/injection, schedule: Q01DX009 (ip), vehicle: other, higher = longer survival): 96 % of control

Nc1ncnc2c1ncn2C1CCCO1 (stereo not drawn)
T/C (endpoint: mean tumor weight, dose: 50.0 mg/kg/injection, schedule: Q01DX011 (ip), vehicle: other, higher = larger tumour): 75 % of control | T/C (endpoint: mean tumor weight, dose: 100.0 mg/kg/injection, schedule: Q01DX011 (ip), vehicle: other, higher = larger tumour): 56 % of control | T/C (endpoint: mean tumor weight, dose: 200.0 mg/kg/injection, schedule: Q01DX011 (ip), vehicle: other, higher = larger tumour): 37 % of control

O=C1CCCC2C3CC(CN12)C1CCCCN1C3 (stereo not drawn)
T/C (endpoint: mean tumor weight, dose: 22.0 mg/kg/injection, schedule: Q01DX011 (ip), vehicle: carboxymethylcellulose (CMC), higher = larger tumour): 113 % of control | T/C (endpoint: mean tumor weight, dose: 33.0 mg/kg/injection, schedule: Q01DX011 (ip), vehicle: carboxymethylcellulose (CMC), higher = larger tumour): 59 % of control | T/C (endpoint: mean tumor weight, dose: 50.0 mg/kg/injection, schedule: Q01DX011 (ip), vehicle: carboxymethylcellulose (CMC), higher = larger tumour): 78 % of control | T/C (endpoint: mean tumor weight, dose: 75.0 mg/kg/injection, schedule: Q01DX011 (ip), vehicle: carboxymethylcellulose (CMC), higher = larger tumour): 89 % of control

CCC(C)n1ncc2c(N(C)C)ncnc21 (stereo not drawn)
T/C (endpoint: mean tumor weight, dose: 32.5 mg/kg/injection, schedule: Q01DX011 (ip), vehicle: carboxymethylcellulose (CMC), higher = larger tumour): 76 % of control

CC1OC(OCC2OC(Oc3c(-c4ccc(O)c(O)c4)oc4cc(O)cc(O)c4c3=O)C(O)C(O)C2O)C(O)C(O)C1O (stereo not drawn)
T/C (endpoint: mean tumor weight, dose: 62.5 mg/kg/injection, schedule: Q01DX011 (ip), vehicle: saline, higher = larger tumour): 104 % of control | T/C (endpoint: mean tumor weight, dose: 125.0 mg/kg/injection, schedule: Q01DX011 (ip), vehicle: saline, higher = larger tumour): 93 % of control | T/C (endpoint: mean tumor weight, dose: 250.0 mg/kg/injection, schedule: Q01DX011 (ip), vehicle: saline, higher = larger tumour): 67 % of control | T/C (endpoint: mean tumor weight, dose: 500.0 mg/kg/injection, schedule: Q01DX011 (ip), vehicle: saline, higher = larger tumour): 52 % of control

CCOC(=O)C(Br)CC (stereo not drawn)
T/C (endpoint: mean tumor weight, dose: 148.0 mg/kg/injection, schedule: Q01DX011 (ip), vehicle: other, higher = larger tumour): 77 % of control
